How the values were obtained:
[1] = system: pigweed; test: Test B pre/postemergence pigweed; type: in vivo, Amaranthus retroflexus
In short: (§1)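 Herbicidal effect was estimated by eye on a ten-point control scale after plants spent twelve to sixteen days in a greenhouse following soil or foliar treatment. Foliar sprays targeted plants at one to four leaves; all doses were formulated in a non-phytotoxic solvent with surfactant.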

[2] = system: rice; test: Test B flood test rice; type: in vivo, Oryza sativa
In short: (§2)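 Read-out is a visual response score from 0 (no effect) to 10 (complete control), assigned by comparison with untreated controls. Treatment was applied at the 2-leaf stage, and plants stayed in the greenhouse for twelve to sixteen days before scoring.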

[3] = system: bamyardgrass; test: Test B flood test barnyardgrass; type: in vivo, Echinochloa crus-galli
In short: as §2

[4] = system: cocklebur; test: Test B pre/postemergence cocklebur; type: in vivo, Xanthium strumarium
In short: as §1

[5] = system: giant foxtail; test: Test B pre/postemergence giant foxtail; type: in vivo, Setaria faberii
In short: as §1

[6] = system: corn; test: Test B pre/postemergence corn; type: in vivo, Zea mays
In short: as §1

[7] = system: blackgrass; test: Test B pre/postemergence blackgrass; type: in vivo, Alopecurus myosuroides
In short: as §1

[8] = system: surinam grass; test: Test B pre/postemergence surinam grass; type: in vivo, Brachiaria decumbens
In short: as §1

[9] = system: bedstraw; test: Test B pre/postemergence bedstraw; type: in vivo, Galium aparine
In short: as §1

[10] = system: duck salad; test: Test B flood test duck salad; type: in vivo, Heteranthera limosa
In short: as §2

[11] = system: rape; test: Test B pre/postemergence rape; type: in vivo, Brassica napus
In short: as §1

[12] = system: purple nutsedge; test: Test B pre/postemergence purple nutsedge; type: in vivo, Cyperus rotundus; details: for Nutsedge plant response rating: Postemergence; for Plant response rating, Nutsedge: Preemergence
In short: as §1

[13] = system: morningglory; test: Test B pre/postemergence morningglory; type: in vivo, Ipomoea hederacea
In short: as §1

[14] = system: velvetleaf; test: Test B pre/postemergence velvetleaf; type: in vivo, Abutilon theophrasti
In short: as §1

[15] = system: sugar beet; test: Test B pre/postemergence sugar beet; type: in vivo, Beta vulgaris
In short: as §1

[16] = Postemergence, Rate 62 g/ha, scale 0 to 10, 0 is no effect, 10 is complete control
[17] = Postemergence, Rate 250 g/ha, scale 0 to 10, 0 no effect, 10 complete control
[18] = Preemergence, Rate 62 g/ha, scale 0 to 10, 0 is no effect, 10 is complete control
[19] = Preemergence, Rate 125 g/ha, scale 0 to 10 (0 no effect, 10 complete control)
[20] = Preemergence, Rate 250 g/ha, scale of 0 to 10 where 0 is no effect and 10 is complete control
[21] = Preemergence, Rate 500 g/ha, scale 0 (no effect) to 10 (complete control)
[22] = Rate 125 g/ha, Postemergence, scale 0 to 10, 0 no effect, 10 complete control
[23] = Rate 500 g/ha, Postemergence, scale 0 to 10, 0 no effect, 10 complete control
[24] = Rate 125 g/ha, Pre-emergence, flood test species, scale 0 to 10 where 0 is no effect and 10 is complete control
[25] = Rate 250 g/ha, headed Pre-emergence (flood test species), scale 0 to 10 (0 no effect, 10 complete control)
[26] = Rate 500 g/ha, headed Pre-emergence (flood test species), scale 0 to 10 (0 no effect, 10 complete control)
[27] = Rate 1000 g/ha, Pre-emergence (as headed), scale 0 to 10
[28] = Rate 2000 g/ha, Pre-emergence (as headed), scale 0 to 10

Cc1cccc(C)c1-n1c(=O)on(C(=O)N(c2ccc(Cl)cc2)C(C)C)c1=O [Compound 47]
Redroot pigweed plant response rating [1, 16]: 0
Redroot pigweed plant response rating [1, 17]: 0
Plant response rating, Redroot pigweed [1, 18]: 0
Plant response rating, Redroot pigweed [1, 19]: 0
Plant response rating, Redroot pigweed [1, 20]: 0
Redroot pigweed plant response rating [1, 21]: 0
Redroot pigweed plant response rating [1, 22]: 0
Redroot pigweed plant response rating [1, 23]: 2
Rice plant response rating [2, 24]: 0
Rice plant response rating [2, 25]: 0
Plant response rating, Rice [2, 26]: 0
Rice plant response rating [2, 27]: 0
Rice plant response rating [2, 28]: 0
Barnyardgrass plant response rating [3, 24]: 0
Barnyardgrass plant response rating [3, 25]: 0
Plant response rating, Barnyardgrass [3, 26]: 1
Barnyardgrass plant response rating [3, 27]: 6
Barnyardgrass plant response rating ([3]; Rate 2000 g/ha, Pre-emergence (as headed), scale 0 to 10, 0 no effect, 10 complete control): 8
Cocklebur plant response rating [4, 16]: 0
Cocklebur plant response rating [4, 17]: 2
Plant response rating, Cocklebur [4, 18]: 0
Plant response rating, Cocklebur [4, 19]: 0
Plant response rating, Cocklebur [4, 20]: 0
Cocklebur plant response rating [4, 21]: 0
Cocklebur plant response rating [4, 22]: 0
Cocklebur plant response rating [4, 23]: 2
Giant foxtail plant response rating [5, 16]: 0
Giant foxtail plant response rating [5, 17]: 0
Plant response rating, Giant foxtail [5, 18]: 0
Plant response rating, Giant foxtail [5, 19]: 2
Plant response rating, Giant foxtail [5, 20]: 3
Giant foxtail plant response rating [5, 21]: 3
Giant foxtail plant response rating [5, 22]: 0
Giant foxtail plant response rating [5, 23]: 2
Corn plant response rating [6, 16]: 0
Corn plant response rating [6, 17]: 0
Plant response rating, Corn [6, 18]: 0
Plant response rating, Corn [6, 19]: 0
Plant response rating, Corn [6, 20]: 0
Corn plant response rating [6, 21]: 0
Corn plant response rating [6, 22]: 0
Corn plant response rating [6, 23]: 0
Blackgrass plant response rating [7, 16]: 0
Blackgrass plant response rating [7, 17]: 0
Plant response rating, Blackgrass [7, 18]: 0
Plant response rating, Blackgrass [7, 19]: 0
Plant response rating, Blackgrass [7, 20]: 0
Blackgrass plant response rating [7, 21]: 0
Blackgrass plant response rating [7, 22]: 0
Blackgrass plant response rating [7, 23]: 0
B. signalgrass plant response rating [8, 16]: 0
B. signalgrass plant response rating [8, 17]: 0
Plant response rating, B. signalgrass [8, 18]: 0
Plant response rating, B. signalgrass [8, 19]: 0
Plant response rating, B. signalgrass [8, 20]: 0
B. signalgrass plant response rating [8, 21]: 0
B. signalgrass plant response rating [8, 22]: 0
B. signalgrass plant response rating ([8]; Rate 500 g/ha, Postemergence, scale of 0 to 10 where 0 is no effect and 10 is complete control): 0
Bedstraw plant response rating [9, 16]: 0
Bedstraw plant response rating [9, 17]: 6
Plant response rating, Bedstraw [9, 19]: 0
Plant response rating, Bedstraw [9, 20]: 0
Bedstraw plant response rating [9, 21]: 0
Bedstraw plant response rating [9, 22]: 3
Ducksalad plant response rating ([10]; Rate 125 g/ha, Postemergence section (flood test species), scale 0 to 10, 0 no effect, 10 complete control): 0
Ducksalad plant response rating [10, 24]: 0
Ducksalad plant response rating [10, 25]: 0
Plant response rating, Ducksalad [10, 26]: 0
Ducksalad plant response rating [10, 27]: 3
Ducksalad plant response rating [10, 28]: 0
Rape plant response rating [11, 16]: 0
Rape plant response rating [11, 17]: 0
Plant response rating, Rape [11, 18]: 0
Plant response rating, Rape [11, 19]: 0
Plant response rating, Rape [11, 20]: 0
Rape plant response rating [11, 21]: 0
Rape plant response rating [11, 22]: 0
Rape plant response rating [11, 23]: 0
Nutsedge plant response rating ([12]; Rate 62 g/ha, scale 0 to 10, 0 is no effect, 10 is complete control): 0
Nutsedge plant response rating ([12]; Rate 250 g/ha, scale 0 to 10, 0 no effect, 10 complete control): 0
Plant response rating, Nutsedge ([12]; Rate 125 g/ha, scale 0 to 10 (0 no effect, 10 complete control)): 0
Plant response rating, Nutsedge ([12]; Rate 250 g/ha, scale of 0 to 10 where 0 is no effect and 10 is complete control): 0
Nutsedge plant response rating ([12]; Rate 125 g/ha, scale 0 to 10, 0 no effect, 10 complete control): 0
Nutsedge plant response rating ([12]; Rate 500 g/ha, scale 0 to 10, 0 no effect, 10 complete control): 0
Morningglory plant response rating [13, 16]: 1
Morningglory plant response rating [13, 17]: 4
Plant response rating, Morningglory [13, 18]: 0
Plant response rating, Morningglory [13, 19]: 0
Plant response rating, Morningglory [13, 20]: 0
Morningglory plant response rating [13, 21]: 0
Morningglory plant response rating [13, 22]: 2
Morningglory plant response rating [13, 23]: 6
Velvetleaf plant response rating [14, 16]: 0
Velvetleaf plant response rating [14, 17]: 0
Plant response rating, Velvetleaf [14, 18]: 0
Plant response rating, Velvetleaf [14, 19]: 0
Plant response rating, Velvetleaf [14, 20]: 0
Velvetleaf plant response rating [14, 21]: 0
Velvetleaf plant response rating [14, 22]: 0
Velvetleaf plant response rating [14, 23]: 0
Sugarbeets plant response rating [15, 16]: 0
Sugarbeets plant response rating [15, 17]: 0
Plant response rating, Sugarbeets [15, 18]: 0
Plant response rating, Sugarbeets [15, 19]: 0
Plant response rating, Sugarbeets [15, 20]: 0
Sugarbeets plant response rating [15, 21]: 0
Sugarbeets plant response rating [15, 22]: 0
Sugarbeets plant response rating [15, 23]: 0
